Reference: ChEMBL document CHEMBL1201861, “Genomics of Drug Sensitity in Cancer screening data, Wellcome Trust Sanger Institute”
pIC50: −log10 of the molar value.

Experiments:
Assay in all cases: cells
NCI-H2405 = assay type: functional, cell-based, Homo sapiens
Description: SANGER: Inhibition of human NCI-H2405 cell growth in a cell viability assay.

NCI-H650 = assay type: functional, cell-based, Homo sapiens
Description: SANGER: Inhibition of human NCI-H650 cell growth in a cell viability assay.

NCI-H810 = assay type: functional, cell-based, Homo sapiens
Description: SANGER: Inhibition of human NCI-H810 cell growth in a cell viability assay.

SW948 = assay type: functional, cell-based, Homo sapiens
Description: SANGER: Inhibition of human SW948 cell growth in a cell viability assay.

MC-IXC = assay type: functional, cell-based, Homo sapiens
Description: SANGER: Inhibition of human MC-IXC cell growth in a cell viability assay.

DMS-273 = assay type: functional, cell-based, Homo sapiens
Description: SANGER: Inhibition of human DMS-273 cell growth in a cell viability assay.

SW 1116 = assay type: functional, cell-based, Homo sapiens
Description: SANGER: Inhibition of human SW1116 cell growth in a cell viability assay.

MOLT-13 = assay type: functional, cell-based, Homo sapiens
Description: SANGER: Inhibition of human MOLT-13 cell growth in a cell viability assay.

NCI-H28 = assay type: functional, cell-based, Homo sapiens
Description: SANGER: Inhibition of human NCI-H28 cell growth in a cell viability assay.

BEN = assay type: functional, cell-based, Homo sapiens; conditions: Homo sapiens, BEN
Description: SANGER: Inhibition of human BEN cell growth in a cell viability assay.

HuO9 = assay type: functional, cell-based, Homo sapiens
Description: SANGER: Inhibition of human HuO9 cell growth in a cell viability assay.

LoVo = assay type: functional, cell-based, Homo sapiens
Description: SANGER: Inhibition of human LoVo cell growth in a cell viability assay.

RD = assay type: functional, cell-based, Homo sapiens
Description: SANGER: Inhibition of human RD cell growth in a cell viability assay.

HPAF-II = assay type: functional, cell-based, Homo sapiens
Description: SANGER: Inhibition of human HPAF-II cell growth in a cell viability assay.

SCC-4 = assay type: functional, cell-based, Homo sapiens
Description: SANGER: Inhibition of human SCC-4 cell growth in a cell viability assay.

KP-N-YN = assay type: functional, cell-based, Homo sapiens
Description: SANGER: Inhibition of human KP-N-YN cell growth in a cell viability assay.

C-33-A = assay type: functional, cell-based, Homo sapiens
Description: SANGER: Inhibition of human C-33-A cell growth in a cell viability assay.

MDA-MB-453 = assay type: functional, cell-based, Homo sapiens
Description: SANGER: Inhibition of human MDA-MB-453 cell growth in a cell viability assay.

DK-MG = assay type: functional, cell-based, Homo sapiens
Description: SANGER: Inhibition of human DK-MG cell growth in a cell viability assay.

ASPC1 = assay type: functional, cell-based, Homo sapiens
Description: SANGER: Inhibition of human AsPC-1 cell growth in a cell viability assay.

HCC1419 = assay type: functional, cell-based, Homo sapiens
Description: SANGER: Inhibition of human HCC1419 cell growth in a cell viability assay.

HCC70 = assay type: functional, cell-based, Homo sapiens
Description: SANGER: Inhibition of human HCC70 cell growth in a cell viability assay.

SW1573 = assay type: functional, cell-based, Homo sapiens
Description: SANGER: Inhibition of human SW1573 cell growth in a cell viability assay.

OE19 = assay type: functional, cell-based, Homo sapiens
Description: SANGER: Inhibition of human OE19 cell growth in a cell viability assay.

CAL-27 = assay type: functional, cell-based, Homo sapiens
Description: SANGER: Inhibition of human CAL-27 cell growth in a cell viability assay.

FTC-133 = assay type: functional, cell-based, Homo sapiens
NB7 = assay type: functional, cell-based, Homo sapiens
Description: SANGER: Inhibition of human NB7 cell growth in a cell viability assay.

CHL-1 = assay type: functional, cell-based, Homo sapiens
Description: SANGER: Inhibition of human CHL-1 cell growth in a cell viability assay.

A-375 = assay type: functional, cell-based, Homo sapiens
Description: SANGER: Inhibition of human A375 cell growth in a cell viability assay.

J82 = assay type: functional, cell-based, Homo sapiens
Description: SANGER: Inhibition of human J82 cell growth in a cell viability assay.

DU-145 = assay type: functional, cell-based, Homo sapiens
Description: SANGER: Inhibition of human DU-145 cell growth in a cell viability assay.

HuCCT-1 = assay type: functional, cell-based, Homo sapiens, HuCCT1
Description: SANGER: Inhibition of human HuCCT1 cell growth in a cell viability assay.

SK-MEL-28 = assay type: functional, cell-based, Homo sapiens
Description: SANGER: Inhibition of human SK-MEL-28 cell growth in a cell viability assay.

CAL-54 = assay type: functional, cell-based, Homo sapiens
Description: SANGER: Inhibition of human CAL-54 cell growth in a cell viability assay.

KNS-62 = assay type: functional, cell-based, Homo sapiens
Description: SANGER: Inhibition of human KNS-62 cell growth in a cell viability assay.

D-542MG = assay type: functional, cell-based, Homo sapiens
Description: SANGER: Inhibition of human D-542MG cell growth in a cell viability assay.

NCI-H1703 = assay type: functional, cell-based, Homo sapiens
Description: SANGER: Inhibition of human NCI-H1703 cell growth in a cell viability assay.

23132-87 = assay type: functional, cell-based, Homo sapiens
Description: SANGER: Inhibition of human 23132-87 cell growth in a cell viability assay.

## CCN(CC)CCCCNc1ncc2cc(-c3cc(OC)cc(OC)c3)c(NC(=O)NC(C)(C)C)nc2n1 [PD-173074]
NCI-H2405; Homo sapiens, NCI-H2405
  pIC50: < 5.70
NCI-H650; Homo sapiens, NCI-H650
  pIC50: < 5.70
NCI-H810; Homo sapiens, NCI-H810
  pIC50: < 5.70
SW948; Homo sapiens, SW948
  pIC50: < 5.70
MC-IXC; Homo sapiens, MC-IXC
  pIC50: < 5.70
DMS-273; Homo sapiens, DMS-273
  pIC50: < 5.70
SW 1116; Homo sapiens, SW 1116
  pIC50: < 5.70
MOLT-13; Homo sapiens, MOLT-13
  pIC50: < 5.70
NCI-H28; Homo sapiens, NCI-H28
  pIC50: < 5.70
BEN
  pIC50: < 5.70
HuO9; Homo sapiens, HuO9
  pIC50: < 5.70
LoVo; Homo sapiens, LoVo
  pIC50: < 5.70
RD; Homo sapiens, RD
  pIC50: < 5.70
HPAF-II; Homo sapiens, HPAF-II
  pIC50: < 5.70
SCC-4; Homo sapiens, SCC-4
  pIC50: < 5.70
KP-N-YN; Homo sapiens, KP-N-YN
  pIC50: < 5.70
C-33-A; Homo sapiens, C-33-A
  pIC50: < 5.70
MDA-MB-453; Homo sapiens, MDA-MB-453
  pIC50: < 5.70
DK-MG; Homo sapiens, DK-MG
  pIC50: < 5.70
ASPC1; Homo sapiens, ASPC1
  pIC50: < 5.70
HCC1419; Homo sapiens, HCC1419
  pIC50: < 5.70
HCC70; Homo sapiens, HCC70
  pIC50: < 5.70
SW1573; Homo sapiens, SW1573
  pIC50: < 5.70
OE19; Homo sapiens, OE19
  pIC50: < 5.70
CAL-27; Homo sapiens, CAL-27
  pIC50: < 5.70
FTC-133; Homo sapiens, FTC-133
  pIC50: < 5.70
NB7; Homo sapiens, NB7
  pIC50: < 5.70
CHL-1; Homo sapiens, CHL-1
  pIC50: < 5.70
A-375; Homo sapiens, A-375
  pIC50: < 5.70
J82; Homo sapiens, J82
  pIC50: < 5.70
DU-145; Homo sapiens, DU-145
  pIC50: 5.80
HuCCT-1; Homo sapiens, HuCCT-1
  pIC50: < 5.70
SK-MEL-28; Homo sapiens, SK-MEL-28
  pIC50: < 5.70
CAL-54; Homo sapiens, CAL-54
  pIC50: < 5.70
KNS-62; Homo sapiens, KNS-62
  pIC50: < 5.70

## Cn1cnc2c(F)c(Nc3ccc(Br)cc3Cl)c(C(=O)NOCCO)cc21 [SELUMETINIB]
NCI-H2405; Homo sapiens, NCI-H2405
  pIC50: < 5.40
NCI-H650; Homo sapiens, NCI-H650
  pIC50: < 5.40
NCI-H810; Homo sapiens, NCI-H810
  pIC50: < 5.40
SW948; Homo sapiens, SW948
  pIC50: < 5.40
MC-IXC; Homo sapiens, MC-IXC
  pIC50: < 5.40
DMS-273; Homo sapiens, DMS-273
  pIC50: < 5.40
SW 1116; Homo sapiens, SW 1116
  pIC50: < 5.40
MOLT-13; Homo sapiens, MOLT-13
  pIC50: < 5.40
NCI-H28; Homo sapiens, NCI-H28
  pIC50: < 5.40
BEN
  pIC50: < 5.40
HuO9; Homo sapiens, HuO9
  pIC50: < 5.40
LoVo; Homo sapiens, LoVo
  pIC50: 5.97
RD; Homo sapiens, RD
  pIC50: < 5.40
HPAF-II; Homo sapiens, HPAF-II
  pIC50: 5.48
SCC-4; Homo sapiens, SCC-4
  pIC50: < 5.40
KP-N-YN; Homo sapiens, KP-N-YN
  pIC50: < 5.40
C-33-A; Homo sapiens, C-33-A
  pIC50: < 5.40
MDA-MB-453; Homo sapiens, MDA-MB-453
  pIC50: < 5.40
DK-MG; Homo sapiens, DK-MG
  pIC50: < 5.40
ASPC1; Homo sapiens, ASPC1
  pIC50: 6.49
HCC1419; Homo sapiens, HCC1419
  pIC50: < 5.40
HCC70; Homo sapiens, HCC70
  pIC50: < 5.40
SW1573; Homo sapiens, SW1573
  pIC50: < 5.40
OE19; Homo sapiens, OE19
  pIC50: < 5.40
CAL-27; Homo sapiens, CAL-27
  pIC50: 5.51
FTC-133; Homo sapiens, FTC-133
  pIC50: < 5.40
NB7; Homo sapiens, NB7
  pIC50: < 5.40
CHL-1; Homo sapiens, CHL-1
  pIC50: < 5.40
DU-145; Homo sapiens, DU-145
  pIC50: < 5.40
HuCCT-1; Homo sapiens, HuCCT-1
  pIC50: 5.89
CAL-54; Homo sapiens, CAL-54
  pIC50: 5.83
KNS-62; Homo sapiens, KNS-62
  pIC50: < 5.40

## CS(=O)(=O)c1ccc(C(=O)Nc2ccc(Cl)c(-c3ccccn3)c2)c(Cl)c1 [VISMODEGIB]
NCI-H2405; Homo sapiens, NCI-H2405
  pIC50: < 5.00
NCI-H650; Homo sapiens, NCI-H650
  pIC50: < 5.00
NCI-H810; Homo sapiens, NCI-H810
  pIC50: < 5.00
SW948; Homo sapiens, SW948
  pIC50: < 5.00
MC-IXC; Homo sapiens, MC-IXC
  pIC50: < 5.00
DMS-273; Homo sapiens, DMS-273
  pIC50: < 5.00
SW 1116; Homo sapiens, SW 1116
  pIC50: < 5.00
D-542MG; Homo sapiens, D-542MG
  pIC50: 5.73
NCI-H28; Homo sapiens, NCI-H28
  pIC50: < 5.00
BEN
  pIC50: < 5.00
HuO9; Homo sapiens, HuO9
  pIC50: < 5.00
LoVo; Homo sapiens, LoVo
  pIC50: < 5.00
RD; Homo sapiens, RD
  pIC50: < 5.00
HPAF-II; Homo sapiens, HPAF-II
  pIC50: < 5.00
SCC-4; Homo sapiens, SCC-4
  pIC50: < 5.00
KP-N-YN; Homo sapiens, KP-N-YN
  pIC50: < 5.00
C-33-A; Homo sapiens, C-33-A
  pIC50: < 5.00
MDA-MB-453; Homo sapiens, MDA-MB-453
  pIC50: < 5.00
DK-MG; Homo sapiens, DK-MG
  pIC50: < 5.00
ASPC1; Homo sapiens, ASPC1
  pIC50: < 5.00
HCC1419; Homo sapiens, HCC1419
  pIC50: < 5.00
HCC70; Homo sapiens, HCC70
  pIC50: < 5.00
SW1573; Homo sapiens, SW1573
  pIC50: < 5.00
OE19; Homo sapiens, OE19
  pIC50: < 5.00
CAL-27; Homo sapiens, CAL-27
  pIC50: < 5.00
FTC-133; Homo sapiens, FTC-133
  pIC50: < 5.00
NB7; Homo sapiens, NB7
  pIC50: < 5.00
CHL-1; Homo sapiens, CHL-1
  pIC50: < 5.00
A-375; Homo sapiens, A-375
  pIC50: < 5.00
J82; Homo sapiens, J82
  pIC50: < 5.00
DU-145; Homo sapiens, DU-145
  pIC50: < 5.00
NCI-H1703; Homo sapiens, NCI-H1703
  pIC50: < 5.00
HuCCT-1; Homo sapiens, HuCCT-1
  pIC50: < 5.00
SK-MEL-28; Homo sapiens, SK-MEL-28
  pIC50: < 5.00
CAL-54; Homo sapiens, CAL-54
  pIC50: < 5.00
23132-87; Homo sapiens
  pIC50: 5.36
KNS-62; Homo sapiens, KNS-62
  pIC50: < 5.00

## CISPLATIN
NCI-H2405; nci-h2405
  pIC50: 4.64
NCI-H650; nci-h650
  pIC50: 4.52
NCI-H810; nci-h810
  pIC50: 3.56
SW948; sw948
  pIC50: 3.65
MC-IXC; mc-ixc
  pIC50: 5.77
DMS-273; dms-273
  pIC50: 5.01
SW 1116; sw 1116
  pIC50: 3.80
MOLT-13; molt-13
  pIC50: 3.42
D-542MG; d-542mg
  pIC50: 5.49
NCI-H28; nci-h28
  pIC50: 3.93
HuO9; huo9
  pIC50: 4.41
LoVo; lovo
  pIC50: 4.24
RD; rd
  pIC50: 4.84
HPAF-II; hpaf-ii
  pIC50: 3.94
SCC-4; scc-4
  pIC50: 4.51
KP-N-YN; kp-n-yn
  pIC50: 3.24
C-33-A; c-33-a
  pIC50: 5.04
MDA-MB-453; mda-mb-453
  pIC50: 4.59
DK-MG; dk-mg
  pIC50: 3.86
ASPC1; aspc1
  pIC50: 4.68
HCC1419; hcc1419
  pIC50: 4.53
HCC70; hcc70
  pIC50: 5.00
SW1573; sw1573
  pIC50: 4.36
OE19; oe19
  pIC50: 3.15
CAL-27; cal-27
  pIC50: 5.17
FTC-133; ftc-133
  pIC50: 5.32
NB7; nb7
  pIC50: 4.81
CHL-1; chl-1
  pIC50: 4.00
A-375; a-375
  pIC50: 3.27
J82; j82
  pIC50: 5.29
DU-145; du-145
  pIC50: 4.95
NCI-H1703; nci-h1703
  pIC50: 3.83
HuCCT-1; hucct1
  pIC50: 4.15
SK-MEL-28; sk-mel-28
  pIC50: 4.65
CAL-54; cal-54
  pIC50: 4.91
23132-87
  pIC50: 4.22
KNS-62; kns-62
  pIC50: 4.85
